Test in all cases: inhibition of tumour cell growth, NCI panel, 48 h
In experiment [1] the test system is A498.
Experiment [2] has as its system ACHN.
Experiment [3] concerns CCRF-CEM.
Experiment [4] has as its system COLO 205.
The test system of experiment [5] is HCT-15.
The subject of experiment [6] is HOP-92.
The test system of experiment [7] is HT-29.
In experiment [8] the test system is IGROV-1.
The subject of experiment [9] is K562.
Experiment [10] has as its system MDA-MB-435.
Experiment [11] has as its system PC-3.
Experiment [12] relates to RPMI-8226.
Experiment [13] has as its system RXF 393.
The subject of experiment [14] is SF-539.
The test system of experiment [15] is SK-MEL-28.
The subject of experiment [16] is SK-MEL-2.
Experiment [17] concerns SK-MEL-5.
Experiment [18] has as its system SNB-19.
Experiment [19] has as its system SR.
Experiment [20] deals with UACC-62.

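In this assay, cells in 96-well plates receive the compound at five concentrations for 48 hours. Endpoints are linearly interpolated between the surrounding concentrations. At the GI50, growth is halved.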 Activity calls are given as the source filed them. No stated cut-off is given here; in the data, active = GI50 up to about 1.1 µM and inactive = higher. A value given as a limit tells only on which side of the number the result lay.

On to `NC(=O)C(Nc1c(Cl)cccc1Cl)c1cc2cc(Br)ccc2nc1Cl` (stereo not given), for which the GI50 in [1] was > 100 µM (inactive); in experiment [2], 80.9 µM (inactive); in experiment [3], 33.2 µM (inactive); in experiment [4] it was 24.4 µM (inactive); in [5], 24.4 µM; in experiment [6] it was 37.7 µM (inactive). The GI50 in experiment [7] is 52.8 µM (inactive); in [8], 28.1 µM (inactive); in [9], 29.4 µM (inactive); in [10] it was 19.5 µM (inactive); in [11], 38.9 µM (inactive); in experiment [12], 31.5 µM (inactive). For the same molecule, the GI50 in experiment [13] is 41.7 µM (inactive); in experiment [14], 41.7 µM (inactive); in experiment [15] it was > 100 µM (inactive); in experiment [16], 29.6 µM (inactive); in experiment [17], 37.5 µM (inactive); in experiment [18] it was 74.3 µM (inactive). The GI50 was 12.2 µM (inactive) in experiment [19] and 44.1 µM (inactive) in experiment [20].
With `N=C(N)N/N=C\c1c(-c2ccccc2)nc2sccn12`, the GI50 in experiment [1] was 19.5 µM (inactive); in experiment [2], 16.9 µM (inactive); in experiment [3] it was 21.6 µM (inactive); in experiment [4], 12 µM (inactive); in experiment [5], 15.7 µM; in experiment [6], 14.1 µM (inactive). The GI50 in experiment [7] was 15.3 µM (inactive); in experiment [8] it was 13.6 µM (inactive); in [9], 17.3 µM (inactive); in experiment [10], 15.6 µM (inactive); in [11], 15.1 µM (inactive); in experiment [12] it was 20 µM (inactive). The GI50 in experiment [13] is 13.4 µM (inactive); in experiment [14], 16.5 µM (inactive); in [15], 15.7 µM (inactive); in [16], 15.1 µM (inactive); in experiment [17] it was 15.6 µM (inactive); in experiment [18], 14.3 µM (inactive). The figures for the GI50 in [19] and in experiment [20] were 22.4 µM (inactive) and 15.9 µM (inactive), respectively.
With `Cc1ccc(S(=O)(=O)NNC(=O)Nc2cccc(C(F)(F)F)c2)cc1`, the GI50 was > 100 µM (inactive) in experiment [1]; 58.5 µM (inactive) in experiment [2]; 96.2 µM (inactive) in [3]; > 100 µM (inactive) in experiment [4]; 89.1 µM in experiment [5]; > 100 µM (inactive) in experiment [6]. The GI50 in [7] is > 100 µM (inactive); in experiment [8], > 100 µM (inactive); in experiment [9], 67.6 µM (inactive); in experiment [10], > 100 µM (inactive); in experiment [11], 36.4 µM (inactive); in experiment [12], > 100 µM (inactive). The GI50 in [13] was 85.7 µM (inactive); in experiment [14] it was > 100 µM (inactive); in [15] it was > 100 µM (inactive); in experiment [16], > 100 µM (inactive); in [17], 33.3 µM (inactive); in experiment [18], > 100 µM (inactive). Also, the GI50 in experiment [19] and in experiment [20] was > 100 µM (inactive) throughout.
For the molecule `N#CSC#Cc1ccc(C#CSC#N)cc1`, the GI50 was 20.2 µM (inactive) in experiment [1]; 16.5 µM (inactive) in [2]; 10.1 µM (inactive) in experiment [3]; 18.2 µM (inactive) in experiment [4]; 19.4 µM in experiment [5]; 12.5 µM (inactive) in experiment [6]. The GI50 in [7] is 20.1 µM (inactive); in experiment [8] it was 15.5 µM (inactive); in [9], 39.1 µM (inactive); in [10], 20.9 µM (inactive); in [11] it was 15.6 µM (inactive); in [12] it was > 100 µM (inactive). The GI50 in experiment [13] is 18.7 µM (inactive); in experiment [14], 20.9 µM (inactive); in experiment [15], 26.2 µM (inactive); in experiment [16], 20.2 µM (inactive); in [17], 18.2 µM (inactive); in experiment [18], 21.3 µM (inactive). For the same molecule, the GI50 in experiment [19] is 51.5 µM (inactive); in experiment [20] it was 18.1 µM (inactive).
For `Cc1nc2ccccc2nc1-c1ccc(/N=[N+](\[O-])c2ccc(-c3nc4ccccc4nc3C)cc2)cc1`, the GI50 in experiment [1] was > 53.2 µM (inactive); in experiment [2] it was > 55.7 µM (inactive); in experiment [3], > 100 µM (inactive); in [4], > 100 µM (inactive); in experiment [5], > 100 µM; in [6] it was > 39.5 µM (inactive). For the same molecule, the GI50 was > 100 µM (inactive) in experiment [7]; > 82.4 µM (inactive) in experiment [8]; > 100 µM (inactive) in [9]; > 100 µM (inactive) in [10]; > 100 µM (inactive) in [11]; > 100 µM (inactive) in [12]. Besides, the GI50 in [13] is 28.8 µM (inactive); in [14], > 50.5 µM (inactive); in experiment [15] it was > 100 µM (inactive); in experiment [16], > 68.1 µM (inactive); in experiment [17], > 96.4 µM (inactive); in [18] it was 48.8 µM (inactive). Further, the GI50 was > 100 µM (inactive) in experiment [19] and > 93.5 µM (inactive) in [20].
For `CC(=O)OCCOCCN1CCN(C2=C(Cl)C(=O)c3c(O)ccc(O)c3C2=O)CC1`, the GI50 is 1.86 µM (inactive) in [1]; 0.286 µM (active) in experiment [2]; 0.0662 µM (active) in experiment [3]; 0.231 µM (active) in [4]; 0.365 µM in experiment [5]; 0.294 µM (active) in experiment [6]. Also, the GI50 is 0.796 µM (active) in [7]; 1.55 µM (inactive) in [8]; 0.264 µM (active) in experiment [9]; 0.71 µM (active) in experiment [10]; 1.51 µM (inactive) in [11]; 0.249 µM (active) in experiment [12]. Besides, the GI50 in experiment [13] was 0.69 µM (active); in experiment [14], 1.71 µM (inactive); in [15], 1.04 µM (active); in experiment [16] it was 1.63 µM (inactive); in [17], 1.54 µM (inactive); in experiment [18], 3.04 µM (inactive). In addition, the GI50 in experiment [19] was 0.0444 µM (active); in experiment [20], 1.38 µM (inactive).
In the case of `CCOC(=O)/C=C/C1OC(C)(C)OC1/C=C/C(=O)OCC` (stereo not given), the GI50 in experiment [1] was 42 µM (inactive); in experiment [2] it was 38.4 µM (inactive); in experiment [3], 17.2 µM (inactive); in experiment [4], 30.6 µM (inactive); in experiment [5] it was 23.4 µM; in experiment [6] it was 19.4 µM (inactive). The GI50 in experiment [7] was 18.2 µM (inactive); in [8], 31.3 µM (inactive); in experiment [9] it was 21.4 µM (inactive); in experiment [10], 29 µM (inactive); in experiment [11] it was 44.9 µM (inactive); in [12] it was 24.8 µM (inactive). Moreover, the GI50 in [13] was 9.91 µM (inactive); in [14] it was 40.2 µM (inactive); in experiment [15] it was 28.4 µM (inactive); in [16], 81.5 µM (inactive); in experiment [17] it was 38.4 µM (inactive); in [18] it was 33.9 µM (inactive). Further, the GI50 is 15.1 µM (inactive) in experiment [19] and 39.9 µM (inactive) in experiment [20].

Values taken from ChEMBL document CHEMBL1201862, “PubChem BioAssay data set” (2004).
